Data as given in paper PMC4216214 (Journal of Medicinal Chemistry, 2014).

Assays:
rNTS1 receptor = rNTS1 receptor (Rattus norvegicus, UniProt P20789); test: Calcium mobilization assay for NTS1 receptor; format: cell-based; conditions: for activity at NTS1: NTS1 FLIPR calcium assay
rNTS2 receptor [1] = target: T1, rNTS2 receptor (Rattus norvegicus, UniProt Q63384); test: Calcium mobilization assay for NTS2 receptor; format: cell-based; conditions: calcium mobilization relative to 5b
T1 sequence (Q63384 1-416): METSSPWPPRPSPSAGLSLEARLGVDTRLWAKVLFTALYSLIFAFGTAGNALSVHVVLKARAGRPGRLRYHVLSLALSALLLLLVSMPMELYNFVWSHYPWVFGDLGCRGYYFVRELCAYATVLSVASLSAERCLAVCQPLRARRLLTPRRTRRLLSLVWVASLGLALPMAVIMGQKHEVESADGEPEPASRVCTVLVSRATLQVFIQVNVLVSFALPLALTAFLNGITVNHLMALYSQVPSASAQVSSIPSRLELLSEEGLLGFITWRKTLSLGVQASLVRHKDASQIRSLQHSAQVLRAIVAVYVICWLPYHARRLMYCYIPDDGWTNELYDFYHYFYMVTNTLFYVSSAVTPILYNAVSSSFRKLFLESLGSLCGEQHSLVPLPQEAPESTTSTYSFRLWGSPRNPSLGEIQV

rNTS2 receptor [2] = target: T1, rNTS2 receptor; test: Competitive [125I]NT whole-cell binding assay, CHO-k1 cells overexpressing rNTS2

Chain of rNTS1 receptor (P20789 whole entry): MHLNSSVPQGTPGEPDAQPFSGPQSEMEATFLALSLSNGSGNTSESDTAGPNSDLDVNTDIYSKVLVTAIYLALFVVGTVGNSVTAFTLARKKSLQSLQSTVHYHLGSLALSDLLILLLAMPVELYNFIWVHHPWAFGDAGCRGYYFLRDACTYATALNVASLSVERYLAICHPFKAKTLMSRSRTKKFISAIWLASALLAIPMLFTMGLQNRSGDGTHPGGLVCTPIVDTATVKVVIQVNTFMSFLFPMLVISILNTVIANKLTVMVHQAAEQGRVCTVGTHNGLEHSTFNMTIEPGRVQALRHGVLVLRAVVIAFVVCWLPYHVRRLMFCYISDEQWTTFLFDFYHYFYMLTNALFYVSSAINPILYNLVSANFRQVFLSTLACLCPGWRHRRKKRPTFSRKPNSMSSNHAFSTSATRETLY

SMILES	Kb (rNTS1 receptor) [nM]	NTS2 Emax (FLIPR assay) (rNTS2 receptor [1]) [% 5b]	activity at NTS1 (rNTS1 receptor)	Ki (rNTS2 receptor [2]) [nM]
COc1cccc(OC)c1-c1cc(C(=O)NC2(C(=O)O)C3CC4CC(C3)CC2C4)nn1-c1ccnc2cc(Cl)ccc12 (stereo not drawn) [Compound 5a]	4.7 ± 0.8	100	–	–
COc1ccccc1-c1cc(C(=O)NC2(C(=O)O)CCCCC2)nn1-c1ccc(F)cc1 [Compound 7b, 1-({[1-(4-Fluorophenyl)-5-(2-methoxyphenyl)-1H-pyrazol-3-yl]carbonyl}amino)cyclohexanecarboxylic Acid]	–	7±2	neither calcium nor binding activity at NTS1	–
COc1cccc(OC)c1-c1cc(C(=O)NC2(C(=O)O)C3CC4CC(C3)CC2C4)nn1-c1ccc(C(=O)N(C)CCCN(C)C)cc1C(C)C (stereo not drawn) [Compound 5b]	1.5 ± 0.6	–	–	–
COc1cccc(OC)c1-c1cc(C(=O)NC2C3CC4CC(C3)CC2C4)nn1-c1ccnc2cc(Cl)ccc12 (stereo not drawn) [Compound 13, 1-(7-Chloroquinolin-4-yl)-5-(2,6-dimethoxyphenyl)-N-tricyclo[3.3.1.13,7]dec-2-yl-1H-pyrazole-3-carboxamide]	–	–	inactive	> 11000
C[C@@H]1CN([C@H]2CC[C@](C#N)(c3ccc(F)cc3)CC2)CC[C@]1(C(=O)O)c1ccccc1 [Compound 6, levocabastine]	–	16	no activity at NTS1	–
